According to patent US20240342119A1, “COMPOSITION FOR TREATING HY[…] AND KELOIDS […] THI[…] AS ACTIVE INGREDIENT” (CEL[…]., priority 2021, published 2024):

Test system: hypertrophic scars in rabbit ears
Test: rabbit ear hypertrophic scar model
Assay type: in vivo, New Zealand white rabbits
Details: 10% compound; for epidermal thickness of hypertrophic scar / scar elevation index (SEI) / collagen density (ratio of blue-stained area to total area): 0.5 mL applied daily for 14 days, compared to control and solvent-treated group; for epidermal thickness of hypertrophic scar: H&E, FIG. 9; for scar elevation index (SEI): FIG. 10; for collagen density (ratio of blue-stained area to total area): FIG. 11; for visual evaluation score of hypertrophic scar (dermatoscope, score 0-3 of Table 1): 0.5 mL applied daily, day 14, compared to control and solvent-treated group, FIG. 8
Description: Eight female New Zealand white rabbits (2.6 to 3 kg) were anesthetized, and wounds were formed by removing the epidermis, dermis, and perichondrium of the ear skin of the rabbits using an 8 mm biopsy punch. Three wounds were formed in an ear area of each rabbit. The rabbit's surgical site was sterilized, and the formation of hypertrophic scars was induced through natural healing for 3 weeks.
After 3-week natural healing, the complete epithelialization and hypertrophic scar formation in scar areas were confirmed, and treatment was started for each test group. The test groups were classified into a normal group (normal tissue), a control (untreated scar/hypertrophic scar), test group 1 (solve application), test group 2 (CBM-N1 10%), test group 3 (CBM-N3 10%), test group 4 (CBM-N 10%), and test group 5 (CBM-N 10%).
Each test group was treated by applying 0.5 mL of drug daily for 2 weeks (14 days), and then a tissue autopsy was performed. The biopsied tissue was stored in a 10% formalin solution to form a tissue slide. The effectiveness of hypertrophic scar treatment was confirmed through dermatoscopy and histological evaluation.
The skin tissue areas of the control and test groups were observed using a dermatoscope on the start day and end day (Day 14 of treatment) of treatment, and depending on the degree of hypertrophic scar formation, scores were given for visual evaluation as shown in Table 1 below.
A paraffin block of the fixed ear tissue of a rabbit was prepared, and sliced to a thickness of 3 μm, thereby preparing a tissue slide. Following hydration, staining was performed using hematoxylin and eosin solutions. The stained tissue slides were photographed using a 200× microscope, and epithelial thicknesses were measured using ZEISS ZEN Microscope Software.
The fixed ear tissue of a rabbit was stained with a hematoxylin or eosin solution in the same manner as in the epidermal thickness analysis method, and the stained tissue slide was photographed at 50× magnification. Using ZEISS ZEN Microscope Software, the length from the epidermis to the cartilage was measured for the scar area and normal area, and the scar evaluation index (SEI) was calculated from the results. Here, the SEI is the value calculated by dividing ‘the length from the epidermis to the cartilage at the thickest point in the scar area’ by ‘the length from the epidermis to the cartilage in the normal skin area.’
A paraffin block of the fixed ear tissue of a rabbit was prepared, and sliced to a thickness of 3 μm, thereby preparing a tissue slide. Following hydration, staining was performed using Biebrich Scarlet-Acid Fuchsin solution for 5 minutes, and washing was performed and then staining was performed again with phosphotungstic acid/phosphomolybdic acid for 5 minutes.
Subsequently, staining was performed with aniline blue and an acetic acid solution, and the stained tissue slides were photographed at 400× magnification. In the photographs that were taken, the ratio of the blue-stained area, that is, the area occupied by collagen, to the total area was analyzed using Image J (The National Institutes of Health, USA).

Structure (SMILES) | epidermal thickness of hypertrophic scar | scar elevation index (SEI) | collagen density (ratio of blue-stained area to total area) | visual evaluation score of hypertrophic scar (dermatoscope, score 0-3 of Table 1)
NC(=O)C[S+]([O-])C(c1ccccc1)c1ccccc1 (stereo not shown) [CBM-N1, 2-(benzhydrylsulfinyl)acetamide, reference compound] | thin epidermal thicknesses | lower SEI values | lower collagen densities | much lower
O=C(CSC(c1ccccc1)c1ccccc1)Nc1ccccc1 [CBM-N3, 2-(benzhydrylthio)-N-phenylacetamide] | thin epidermal thicknesses | lower SEI values | lower collagen densities | much lower
O=C(C[S+]([O-])C(c1ccccc1)c1ccccc1)NCC1CCCO1 (stereo not shown) [CBM-N5, 2-(benzhydrylsulfinyl)-N-[(tetrahydrofuran-2-yl)methyl]acetamide] | thin epidermal thicknesses | lower SEI values | lower collagen densities | much lower
NC(=O)C[S+]([O-])C(c1ccc(F)cc1)c1ccc(F)cc1 (stereo not shown) [CBM-N9, 2-[bis(4-fluorophenyl)methanesulfinyl]acetamide] | thin epidermal thicknesses | lower SEI values | lower collagen densities | much lower
